For data set [1], the target named is T1, Solute carrier family 22 member 1 (Rattus norvegicus, UniProt Q63089).
T1 sequence (Q63089 whole entry): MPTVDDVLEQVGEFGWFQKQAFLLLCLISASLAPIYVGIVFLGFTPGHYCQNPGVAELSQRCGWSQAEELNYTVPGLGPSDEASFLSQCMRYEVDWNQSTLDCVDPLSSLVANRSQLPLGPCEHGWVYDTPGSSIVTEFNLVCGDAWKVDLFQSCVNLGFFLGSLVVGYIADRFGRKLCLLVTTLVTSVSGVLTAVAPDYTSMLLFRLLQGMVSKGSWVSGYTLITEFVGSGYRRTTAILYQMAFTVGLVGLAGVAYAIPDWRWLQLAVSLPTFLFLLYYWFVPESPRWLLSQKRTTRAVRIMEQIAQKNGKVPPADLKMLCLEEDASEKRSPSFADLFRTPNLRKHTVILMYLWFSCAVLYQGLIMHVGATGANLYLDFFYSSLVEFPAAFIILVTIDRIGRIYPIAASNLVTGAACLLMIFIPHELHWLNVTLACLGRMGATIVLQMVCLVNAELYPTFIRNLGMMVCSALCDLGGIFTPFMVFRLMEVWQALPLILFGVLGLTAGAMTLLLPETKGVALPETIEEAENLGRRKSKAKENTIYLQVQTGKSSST
Briefly: TP_TRANSPORTER: inhibition pramipexole uptake in rOCT1-injected oocytes. The format is functional, cell-based, Oocyte.

Data set [2] addresses T2, Solute carrier family 22 member 2 (Rattus norvegicus, UniProt Q9R0W2).
T2 sequence (Q9R0W2 whole entry): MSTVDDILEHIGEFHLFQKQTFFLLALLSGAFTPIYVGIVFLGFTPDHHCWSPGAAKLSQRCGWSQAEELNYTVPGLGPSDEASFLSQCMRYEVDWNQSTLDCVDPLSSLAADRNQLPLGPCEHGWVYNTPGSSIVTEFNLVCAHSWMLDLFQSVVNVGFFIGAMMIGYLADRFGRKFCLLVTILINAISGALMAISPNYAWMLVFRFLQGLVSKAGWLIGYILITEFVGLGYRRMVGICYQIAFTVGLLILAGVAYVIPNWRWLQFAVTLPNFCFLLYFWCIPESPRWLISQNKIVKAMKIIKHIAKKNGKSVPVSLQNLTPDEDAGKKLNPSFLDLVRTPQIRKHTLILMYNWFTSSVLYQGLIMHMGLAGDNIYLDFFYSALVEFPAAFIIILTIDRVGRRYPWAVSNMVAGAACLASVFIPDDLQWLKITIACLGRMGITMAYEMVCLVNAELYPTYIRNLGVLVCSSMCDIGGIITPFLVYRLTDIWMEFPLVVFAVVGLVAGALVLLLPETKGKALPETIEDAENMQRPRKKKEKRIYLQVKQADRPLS
The data set is described as follows: TP_TRANSPORTER: inhibition pramipexole uptake in rOCT2-injected oocytes. Type of data set: functional, cell-based, Oocyte.

Data set [3] concerns the target T2, Solute carrier family 22 member 2. Briefly: TP_TRANSPORTER: uptake in Xenopus laevis oocytes. Conditions: Xenopus laevis oocytes expressing the transporter.
Substrate in data set [4]: CCCN[C@H]1CCc2nc(N)sc2C1
Briefly: cells, lysate or membranes named.

One may read the IC50 as the point on the concentration scale where inhibition reaches its midpoint. Lower therefore signals inhibition by little substance. As to `C[C@]12C[C@H](O)[C@H]3[C@@H](CCC4=CC(=O)CC[C@@]43C)[C@@H]1CC[C@@H]2C(=O)CO` [CORTICOSTERONE], the IC50 in data set [1] came to 164 µM; in data set [2], 10.7 µM. By Km is commonly meant the concentration of substrate that gives half-maximal velocity. Take `CCCN[C@H]1CCc2nc(N)sc2C1` [PRAMIPEXOLE]: the Km in data set [3] was 17 µM. On to `NC12CC3CC(CC(C3)C1)C2` [AMANTADINE], for which the IC50 in data set [1] turned out to be 76.3 µM; in data set [2], 271 µM. Consider `CCN(CC)CCNC(=O)c1ccc(N)cc1` [PROCAINAMIDE], for which the IC50 in data set [2] came out at 167 µM.

B1: Solute carrier family 22 member 2 (Rattus norvegicus) (protein)
chain: MSTVDDILEHIGEFHLFQKQTFFLLALLSGAFTPIYVGIVFLGFTPDHHCWSPGAAKLSQRCGWSQAEELNYTVPGLGPSDEASFLSQCMRYEVDWNQSTLDCVDPLSSLAADRNQLPLGPCEHGWVYNTPGSSIVTEFNLVCAHSWMLDLFQSVVNVGFFIGAMMIGYLADRFGRKFCLLVTILINAISGALMAISPNYAWMLVFRFLQGLVSKAGWLIGYILITEFVGLGYRRMVGICYQIAFTVGLLILAGVAYVIPNWRWLQFAVTLPNFCFLLYFWCIPESPRWLISQNKIVKAMKIIKHIAKKNGKSVPVSLQNLTPDEDAGKKLNPSFLDLVRTPQIRKHTLILMYNWFTSSVLYQGLIMHMGLAGDNIYLDFFYSALVEFPAAFIIILTIDRVGRRYPWAVSNMVAGAACLASVFIPDDLQWLKITIACLGRMGITMAYEMVCLVNAELYPTYIRNLGVLVCSSMCDIGGIITPFLVYRLTDIWMEFPLVVFAVVGLVAGALVLLLPETKGKALPETIEDAENMQRPRKKKEKRIYLQVKQADRPLS
B1: the Km in data set [4] is 17 µM.

The values are drawn from ChEMBL document CHEMBL2074258 (Drug Metab Dispos, 2005).
